# In paper PMC3419577 (The Journal of neuroscience : the official journal of the …, 2012):
# Tested on: cells in posterior cortex (V1), fresh frozen sections
# Assay: Binding of AP-fusion proteins on fresh-frozen brain sections
# Design: species or system mouse
# Settings: AP staining, competitor with AP-NtHD
substance,measurement,value
"Full-length Otx2: non-tagged, full-length Otx2 used as competitor",competition of AP-NtHD binding,disrupts AP-NtHD cortical binding
